In article PMC7529893, “Structural basis for substrate recognition and chemical inhibition of oncogenic MAGE ubiquitin ligases” (Nature Communications, 2020) one finds IC50 data, which are given here for 59 compounds.

The assay has as its target T1, MAGE-A11:PCF11 interaction (GST-MAGE-A11 MHD and FAM-PCF11_4) (Homo sapiens, UniProt P43364).
T1 construct: GST-MAGE-A11 MHD (human MAGE-A11 MHD amino acid 218-429); made in house; host or cells: E. coli BL21(DE3)
T1 sequence (P43364 218-429): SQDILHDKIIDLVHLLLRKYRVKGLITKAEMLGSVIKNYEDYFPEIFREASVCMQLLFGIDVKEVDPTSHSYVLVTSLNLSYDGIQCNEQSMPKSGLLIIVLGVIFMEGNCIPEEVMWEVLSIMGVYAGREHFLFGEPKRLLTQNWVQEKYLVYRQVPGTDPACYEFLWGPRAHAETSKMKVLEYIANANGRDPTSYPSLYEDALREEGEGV
Put plainly: TR-FRET dose response test of compounds for disruption of MAGE-A11:PCF11 binding. In outline: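 Competition of compounds against binding of FAM-PCF11_4 peptide to GST-MAGE-A11 MHD, detected with Tb-anti-GST, in 50 mM Tris pH 7.5, 20 mM MgCl2, 0.1 mg/ml BSA, 1 mM DTT. 90 min at ~25 °C; 520/490 nm emission ratio (340 nm excitation) fitted for IC50.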
Background: TR-FRET usually uses a lanthanide donor and a delayed reading to cut background.

[1] abbreviates: Supplementary Data 3, 59 quinoline compounds, read-out: TR-FRET IC50.
Where [2] appears, read: Dose response TR-FRET screening of nine scaffold groups against MAGE-A11:PCF11, read-out: consensus IC50.

Like-named read-outs stand apart in the source and are kept apart here. Bounds are passed on as bounds.

As for `Clc1ccc2c(NCCCNCc3cc4ccccc4s3)ccnc2c1` [SJ000521032-1, Clc1ccc2c(NCCCNCc3cc4ccccc4s3)ccnc2c1], the IC50 (as a rule, the concentration that inhibits the measured activity by half) under setting [1] was greater than 70 µM. On to `CCCN(CCCNc1ccnc2cc(C(F)(F)F)ccc12)Cc1ccc2[nH]ccc2c1` [SJ000575171-1, CCCN(CCCNc1ccnc2cc(ccc12)C(F)(F)F)Cc3ccc4[nH]ccc4c3], for which, under setting [1], the concentration for half-maximal inhibition (IC50) is 33.2 µM.

For `FC(F)(F)c1ccc2c(NCCCNCc3ccc4[nH]ccc4c3)ccnc2c1` [SJ000521054-1], the IC50 under setting [2] amounted to 0.397 µM. Still for that read-out and setting: the value for `CCc1ccc(CNCCCNc2ccnc3cc(C(F)(F)F)ccc23)cc1` [SJ000521067-1] was 40.9 µM. Consider `Cc1cc(C)c(C2Nc3ccccc3C(=O)N2CCCN2CCOCC2)cc1C` (centres unmarked) [SJ000803761-1], for which, under setting [2], the 50% inhibitory concentration (IC50) was 62.3 µM. Still for that read-out and setting: next, `COc1cccc(CNCCCNc2ccnc3cc(-c4ccc(C(C)(C)C)cc4)ccc23)c1O` [SJ000311287-1]: 4.67 µM. Same read-out and setting: next, `Clc1ccc(Oc2ccc3c(NCCCNCc4cccc5c4OCO5)ccnc3c2)cc1` [SJ000311228-1]: 17.7 µM; `CC(C)(C)c1ccc(-c2ccc3c(NCCCNCc4cccc5c4OCO5)ccnc3c2)cc1` [SJ000311288-1]: 6.87 µM. Same read-out and setting: the value for `c1cc(CNCCCNc2ccnc3cc(-c4cccc5ccccc45)ccc23)c2c(c1)OCO2` [SJ000311276-1] was 31.2 µM; that for `O=C1c2ccccc2NC(c2ccc(F)c(Br)c2)N1CCCN1CCOCC1` (centres unmarked) [SJ000803764-1] was 68 µM. Regarding `Clc1ccc2c(NCCCN(Cc3ccccc3)Cc3ccc4[nH]ccc4c3)ccnc2c1` [SJ000520430-1, Clc1ccc2c(NCCCN(Cc3ccccc3)Cc4ccc5[nH]ccc5c4)ccnc2c1], the concentration for half-maximal inhibition (IC50) under setting [1] came to 41.7 µM. As to `O=C1C(Cl)=C(NC(=O)C(F)(F)F)C(=O)c2ccccc21` [SJ000024928-1], under setting [2], the IC50 is 9.87 µM. Same read-out and setting: the value for `CCCOc1ccc(C2Nc3ccccc3C(=O)N2CCCN2CCOCC2)cc1` (centres unmarked) [SJ000803758-1] was greater than 70 µM; that for `CCCn1c(=O)c2[nH]c(-c3ccccc3)nc2n(CCC)c1=O` [SJ000832251-1] was greater than 70 µM. With `CCCN(CCCNc1ccnc2cc(C(F)(F)F)ccc12)CC1CC1` [SJ000361266-1, CCCN(CCCNc1ccnc2cc(ccc12)C(F)(F)F)CC3CC3], the IC50 under setting [1] is greater than 70 µM. Take `C=C(C)CSc1nc2cc(-c3ccccc3)sc2c(=O)n1CCN1CCOCC1` [SJ000456069-1]: the half-inhibitory concentration (IC50) under setting [2] stood at 0.861 µM.

On to `COc1ccc(F)cc1CNCCCNc1ccnc2cc(Cc3ccccc3)ccc12` [SJ000311309-1], for which, under setting [2], the 50% inhibitory concentration (IC50) worked out at 18.3 µM. Consider `CCCN(CCCNc1ccnc2cc(C(F)(F)F)ccc12)CCC(C)(C)C` [SJ000520476-1, CCCN(CCCNc1ccnc2cc(ccc12)C(F)(F)F)CCC(C)(C)C], for which the IC50 under setting [1] was greater than 70 µM. On to `COc1ccc(Oc2ccc3c(NCCCNCc4cccc5c4OCO5)ccnc3c2)cc1` [SJ000311220-1], for which the half-inhibitory concentration (IC50) under setting [2] came to 43.7 µM.

As for `COc1cccc(-c2nc(S(=O)(=O)c3ccc(Cl)cc3)c(N3CCOCC3)o2)c1` [SJ000038124-1], the concentration for half-maximal inhibition (IC50) under setting [2] came to 7.43 µM. Turning to `c1ccc(CCc2ccc3c(NCCCNCc4cccc5c4OCO5)ccnc3c2)cc1` [SJ000311257-1], the IC50 under setting [2] was determined as 62.3 µM. Take `CCCN(CCCNc1ccnc2cc(C(F)(F)F)ccc12)Cc1ccc(CC)cc1` [SJ000521009-2, CCCN(CCCNc1ccnc2cc(ccc12)C(F)(F)F)Cc3ccc(CC)cc3]: under setting [1], the IC50 was greater than 70 µM. On to `C=CCn1c(=O)c2c(nc(-c3ccc(S(=O)(=O)O)cc3)n2C)n(C)c1=O` [SJ000287614-4], for which, under setting [2], the half-maximal inhibitory concentration (IC50) is greater than 70 µM. Consider `CCCN(CCCNc1ccnc2cc(C(F)(F)F)ccc12)Cc1ccc[nH]1` [SJ000361255-1, CCCN(CCCNc1ccnc2cc(ccc12)C(F)(F)F)Cc3ccc[nH]3], for which the half-inhibitory concentration (IC50) under setting [1] is greater than 70 µM. `O=C1c2ccccc2NC(c2ccc(F)c(F)c2)N1CCCN1CCOCC1` (centres unmarked) [SJ000803757-1]: the IC50 under setting [2] amounted to 58.4 µM. Take `COc1cc(Cc2ccc3c(NCCCNCc4cc(F)ccc4OC)ccnc3c2)cc(OC)c1` [SJ000311313-1]: the IC50 under setting [2] came out at 33.8 µM.

In the case of `Cc1ccc(F)cc1CN(CCCCNc1ccnc2cc(Cl)ccc12)Cc1ccccc1` [SJ000520449-1, Cc1ccc(F)cc1CN(CCCCNc2ccnc3cc(Cl)ccc23)Cc4ccccc4], the concentration for half-maximal inhibition (IC50) under setting [1] is greater than 70 µM.

`COc1ccc(F)cc1CNCCCNc1ccnc2cc(Cc3cc(C)cc(C)c3)ccc12` [SJ000311321-1]: the IC50 under setting [2] came to 9.04 µM. The same measure, in the same setting: the value for `Cc1ccc(C2Nc3ccccc3C(=O)N2CCCN2CCOCC2)cc1` (centres unmarked) [SJ000803768-1] was 65.9 µM. For `Clc1ccc2c(NCCCNCc3ccc[nH]3)ccnc2c1` [SJ000575192-1, Clc1ccc2c(NCCCNCc3ccc[nH]3)ccnc2c1], under setting [1], the 50% inhibitory concentration (IC50) worked out at 22.8 µM. Turning to `Clc1ccc2c(NCCCNCc3ccc(-c4ccccc4)cc3)ccnc2c1` [SJ000523064-1], the IC50 under setting [2] amounted to 34.9 µM. As for `Cc1ccc(C)c(CN(CCCCNc2ccnc3cc(Cl)ccc23)Cc2ccccc2)c1` [SJ000361209-2, Cc1ccc(C)c(CN(CCCCNc2ccnc3cc(Cl)ccc23)Cc4ccccc4)c1], under setting [1], the half-inhibitory concentration (IC50) is greater than 70 µM.

As for `CCC(CC)c1ccc2c(NCCCNCc3cccc4c3OCO4)ccnc2c1` [SJ000311268-1], under setting [2], the IC50 is 28.9 µM. For the compound `CCCN(CCCNc1ccnc2cc(C(F)(F)F)ccc12)CC1CCCCC1` [SJ000361268-1, CCCN(CCCNc1ccnc2cc(ccc12)C(F)(F)F)CC3CCCCC3], under setting [1], the IC50 is greater than 70 µM.

On to `COc1ccc(F)cc1CNCCCNc1ccnc2cc(-c3cc(C(F)(F)F)cc(C(F)(F)F)c3)ccc12` [SJ000311273-1], for which, under setting [2], the half-inhibitory concentration (IC50) worked out at 7.69 µM. The same measure, in the same setting: next, `CC(C)CCc1ccc2c(NCCCNCc3cccc4c3OCO4)ccnc2c1` [SJ000311248-1]: 27.7 µM. Consider `CCCN(CCCNc1ccnc2cc(C(F)(F)F)ccc12)CC(CC)CC` [SJ000361269-1, CCCN(CCCNc1ccnc2cc(ccc12)C(F)(F)F)CC(CC)CC], for which the IC50 under setting [1] is greater than 70 µM. Turning to `CCCN(CCCNc1c2ccc(Cl)cc2nc2ccc(OC)cc12)Cc1c(Cl)ccc(Cl)c1Cl` [SJ000523021-1, CCCN(CCCNc1c2ccc(Cl)cc2nc3ccc(OC)cc13)Cc4c(Cl)ccc(Cl)c4Cl], under setting [1], the half-inhibitory concentration (IC50) was greater than 70 µM. Take `COc1cc2nc(N(C)CCCNC(=O)C3CCCO3)nc(N)c2cc1OC` (centres unmarked) [SJ000286094-9]: the concentration for half-maximal inhibition (IC50) under setting [2] is 36.2 µM. Consider `COc1cccc(CNCCCNc2ccnc3cc(CC4CCCCC4)ccc23)c1O` [SJ000311251-1], for which, under setting [2], the IC50 came out at 29.2 µM. The same measure, in the same setting: next, `NC1=C(Nc2ccccc2)C(=O)c2ccccc2C1=O` [SJ000562543-1]: 60.8 µM. In the case of `FC(F)(F)Oc1ccc(CN(CCCCNc2ccnc3cc(Cl)ccc23)Cc2ccccc2)cc1` [SJ000520451-1, FC(F)(F)Oc1ccc(CN(CCCCNc2ccnc3cc(Cl)ccc23)Cc4ccccc4)cc1], the half-inhibitory concentration (IC50) under setting [1] is greater than 70 µM. Still for that read-out and setting: the value for `FC(F)(F)c1ccc2c(NCCCNCc3ccc[nH]3)ccnc2c1` [SJ000361105-1, FC(F)(F)c1ccc2c(NCCCNCc3ccc[nH]3)ccnc2c1] was 33 µM; that for `Clc1cccc(-c2ccc(CNCCCNc3ccnc4cc(Cl)ccc34)o2)c1` [SJ000523069-1, Clc1cccc(c1)c2oc(CNCCCNc3ccnc4cc(Cl)ccc34)cc2] was greater than 70 µM. In the case of `CC(C)(C)c1ccc(O)c(CNCCCNc2ccnc3cc(Cl)ccc23)c1` [SJ000311193-1], under setting [2], the IC50 turned out to be 30.4 µM. Take `COc1ccc(F)cc1CNCCCNc1ccnc2cc(Cc3ccc(F)cc3)ccc12` [SJ000311245-1]: the half-inhibitory concentration (IC50) under setting [2] turned out to be 35.1 µM.

Take `COc1ccc(F)cc1CNCCCNc1ccnc2cc(Cc3cccc(C(F)(F)F)c3)ccc12` [SJ000311301-2]: the IC50 under setting [2] was found to be 22.1 µM. On the same count and under the same terms, the value for `c1cc(CNCCCNc2ccnc3cc(C4CCCCC4)ccc23)c2c(c1)OCO2` [SJ000311264-1] was 23.7 µM. Same read-out and setting: next, `COc1ccc(F)cc1CNCCCNc1ccnc2cc(CC3CCCCC3)ccc12` [SJ000311253-1]: 26.3 µM; `N#Cc1ccc(Cc2ccc3c(NCCCNCc4cccc5c4OCO5)ccnc3c2)cc1` [SJ000311304-1]: 66 µM. `CCCN(CCCNc1c2ccc(Cl)cc2nc2ccc(OC)cc12)Cc1ccc2[nH]ccc2c1` [SJ000522732-2, CCCN(CCCNc1c2ccc(Cl)cc2nc3ccc(OC)cc13)Cc4ccc5[nH]ccc5c4]: the IC50 under setting [1] is greater than 70 µM. Regarding `COc1cccc(CNCCCNc2ccnc3cc(Cc4c(Cl)cccc4Cl)ccc23)c1O` [SJ000311315-1], the IC50 under setting [2] is 13.8 µM. Still for that read-out and setting: next, `COc1ccc(F)cc1CNCCCNc1ccnc2cc(Cc3c(Cl)cccc3Cl)ccc12` [SJ000311317-1]: 12.2 µM. Still for that read-out and setting: next, `CCCCCOc1ccc(N(C(C)=O)C2=C(Cl)C(=O)c3ccccc3C2=O)cc1` [SJ000032724-1]: 28.3 µM. `c1ccc(Cc2ccc3c(NCCCNCc4cccc5c4OCO5)ccnc3c2)cc1` [SJ000311308-1]: the 50% inhibitory concentration (IC50) under setting [2] amounted to 46.1 µM.

Consider `O=C1c2ccccc2NC(c2ccc(F)cc2F)N1CCCN1CCOCC1` (centres unmarked) [SJ000795275-1], for which the IC50 under setting [2] is 67.8 µM. On to `Clc1ccc2c(NCCCNCc3ccc4[nH]ccc4c3)ccnc2c1` [SJ000520909-2], for which the half-inhibitory concentration (IC50) under setting [2] came out at 67.1 µM. Same read-out and setting: the value for `COc1cccc(CNCCCNc2ccnc3cc(CCc4ccccc4)ccc23)c1O` [SJ000311255-1] was 26.5 µM. On to `Fc1ccc(-c2ccc3c(NCCCNCc4cccc5c4OCO5)ccnc3c2)cc1` [SJ000311240-1], for which the half-maximal inhibitory concentration (IC50) under setting [2] is 25 µM.
